US11535597B2, “Photoreactive ligands and uses thereof” (The Scripps Research Institute, priority 2017, dated 2022)

Test system: proteins in HEK293T cells
Test: MS-based mapping of FFF probe-modified peptides (isoTOP, sites of labeling)
Format: binding, human
Details: for Labeled Peptide (residues) of NPM1 Nucleophosmin: P06748, PDB 2P1B
Summary of the method: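 Live cells treated with fragment probes (200-250 μM) in serum-free DMEM, with or without competitor ligands. Proteomes clicked to light/heavy biotin-TEV-azide, streptavidin-enriched, trypsin- then TEV-digested; probe-modified peptides identified by LC-MS/MS with any residue allowed as modified site, isoTOP ratios quantified by CIMAGE.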

Question: `C#CCCC1(CCC(=O)N2CCCCC2Cc2ccccc2)N=N1` (stereo not drawn) [probe 13, 1-(2-Benzylpiperidin-1-yl)-3-(3-(but-3-yn-1-yl)-3H-diazirin-3-yl)propan-1-one] was tested. Which “Labeled Peptide of GRWD1 Glutamate-rich WD repeat-containing protein 1” value (Accession Q9BQ67, residues of probe-labeled peptide, family Uncategorized) did it give?
Answer: 263-287

Question: What about the “Labeled Peptide” value (IMPDH2 Inosine-5-monophosphate dehydrogenase 2, residues of probe-modified peptide) of the same compound?
Answer: 110-124

Question: What about the “Labeled Peptide” value (MAPRE1 (Q15691), residues of the probe-labeled peptide) of the same compound?
Answer: 223-241

Question: What about the “Labeled Peptide” value (MCM2 (P49736), residues of the probe-labeled peptide) of the same compound?
Answer: 797-807

Question: And the “Labeled Peptide” value (METTL7A (Q9H8H3), residues of the probe-labeled peptide)?
Answer: 94-105

Question: What about the “Labeled Peptide” value (NTMT1 (Q9BV86), residues of the probe-labeled peptide) of the same compound?
Answer: 167-185

Question: What about the “Labeled Peptide” value (NUP155 (O75694), residues of the probe-labeled peptide) of the same compound?
Answer: 952-968

Question: What about the “Labeled Peptide” value (OPA1 (O60313), residues of the probe-labeled peptide) of the same compound?
Answer: 801-818

Question: What about the “Labeled Peptide (residues) of NPM1 Nucleophosmin” value (peptide DELHIVEAEAMNYEGSPIK) of the same compound?
Answer: 55-73

Question: What about the “Labeled Peptide (residues) of NPM1 Nucleophosmin” value (peptide MSVQPTVSLGGFEITPPVVLR) of the same compound?
Answer: 81-101

Question: What about the “Labeled Peptide” value (P12268 IMPDH2 Inosine-5-monophosphate dehydrogenase 2) of the same compound?
Answer: 110-124

Question: What about the “Labeled Peptide” value (P24666 ACP1 Low molecular weight phosphotyrosine protein phosp) of the same compound?
Answer: 42-59

Question: And the “Labeled Peptide” value (P31939 ATIC Bifunctional purine biosynthesis protein PURH)?
Answer: 178-194

Question: What about the “Labeled Peptide (residues) of PRDX2 Peroxiredoxin-2” value (P32119, peptide TDEGIAYR, PDB 1QMV) of the same compound?
Answer: 120-127

Question: And the “Labeled Peptide” value (Q13867 BLMH Bleomycin hydrolase)?
Answer: 203-218

Question: What about the “Labeled Peptide” value (Q14240 EIF4A2 Eukaryotic initiation factor 4A-II) of the same compound?
Answer: 70-83

Question: And the “Labeled Peptide” value (protein ACP1 (P24666), residues of probe-labeled peptide)?
Answer: 42-59

Question: What about the “Labeled Peptide” value (protein ACP1 Low molecular weight phosphotyrosine protein phosp, residues of probe-labeled peptide) of the same compound?
Answer: 42-59

Question: And the “Labeled Peptide” value (protein ANP32A (Q10567), residues of probe-labeled peptide)?
Answer: 117-132

Question: And the “Labeled Peptide” value (protein ANP32A Acidic leucine-rich nuclear phosphoprotein 32 fami, residues of probe-labeled peptide)?
Answer: 117-132

Question: What about the “Labeled Peptide” value (protein ANP32B (Q92688), residues of probe-labeled peptide) of the same compound?
Answer: 117-132

Question: What about the “Labeled Peptide” value (protein AP1B1 (Q10567), residues of probe-labeled peptide) of the same compound?
Answer: 902-913

Question: And the “Labeled Peptide” value (protein ATIC (P31939), residues of probe-labeled peptide)?
Answer: 178-194

Question: And the “Labeled Peptide” value (protein ATIC Bifunctional purine biosynthesis protein PURH, residues of probe-labeled peptide)?
Answer: 178-194

Question: What about the “Labeled Peptide” value (protein ATP5F1 (P24539), residues of probe-labeled peptide) of the same compound?
Answer: 71-90

Question: And the “Labeled Peptide” value (protein ATP6V1B2 (P21281), residues of probe-labeled peptide)?
Answer: 83-93

Question: What about the “Labeled Peptide” value (protein ATP6V1BE1 (P36543), residues of probe-labeled peptide) of the same compound?
Answer: 200-212

Question: And the “Labeled Peptide” value (protein BLMH (Q13867), residues of probe-labeled peptide)?
Answer: 203-218

Question: What about the “Labeled Peptide” value (protein BLMH Bleomycin hydrolase, residues of probe-labeled peptide) of the same compound?
Answer: 203-218

Question: What about the “Labeled Peptide” value (protein CALM3 Calmodulin (P62158), residues of probe-labeled peptide) of the same compound?
Answer: 128-149

Question: And the “Labeled Peptide” value (protein CCT7 T-complex protein 1 subunit eta (Q99832), residues of probe-labeled peptide)?
Answer: 85-106

Question: And the “Labeled Peptide” value (protein COPB1 Coatomer subunit beta (P53618), residues of probe-labeled peptide)?
Answer: 262-279

Question: And the “Labeled Peptide” value (protein CSTF3 Cleavage stimulation factor subunit 3 (Q12996), residues of probe-labeled peptide)?
Answer: 440-464

Question: What about the “Labeled Peptide” value (protein DIABLO Diablo homolog, mitochondrial (Q9NR28), residues of probe-labeled peptide) of the same compound?
Answer: 124-140

Question: And the “Labeled Peptide” value (protein DIABLO Diablo homolog, mitochondrial, residues of probe-labeled peptide)?
Answer: 124-140

Question: And the “Labeled Peptide” value (protein EEF1A1 Elongation factor 1-alpha 1 (P68104), residues of probe-labeled peptide)?
Answer: 135-146

Question: And the “Labeled Peptide” value (protein EEF1G Elongation factor 1-gamma (P26641), residues of probe-labeled peptide)?
Answer: 379-400

Question: And the “Labeled Peptide” value (protein EIF3L Eukaryotic translation initiation factor 3 submit (Q9Y262), residues of probe-labeled peptide)?
Answer: 404-419

Question: And the “Labeled Peptide” value (protein EIF4A2 Eukaryotic initiation factor 4A-II (Q14240), residues of probe-labeled peptide)?
Answer: 70-83

Question: What about the “Labeled Peptide” value (protein EIF4A2 Eukaryotic initiation factor 4A-II, residues of probe-labeled peptide) of the same compound?
Answer: 70-83

Question: And the “Labeled Peptide” value (protein ERH Enhancer of rudimentary homolog (P84090), residues of probe-labeled peptide)?
Answer: 18-34

Question: And the “Labeled Peptide” value (protein ERH Enhancer of rudimentary homolog, residues of probe-labeled peptide)?
Answer: 18-34

Question: And the “Labeled Peptide” value (protein FKBP4 Peptidyl-prolyl cis-trans isomerase (Q02790), residues of probe-labeled peptide)?
Answer: 190-206

Question: What about the “Labeled Peptide” value (protein FKBP4 Peptidyl-prolyl cis-trans isomerase FKBP4, residues of probe-labeled peptide) of the same compound?
Answer: 190-206

Question: And the “Labeled Peptide” value (protein FKBP10 Peptidyl-prolyl cis-trans isomerase FKBP10 (Q96AY3), residues of probe-labeled peptide)?
Answer: 198-212

Question: What about the “Labeled Peptide” value (protein KPNA2 Importin subunit alpha-2, residues of the probe-labeled peptide) of the same compound?
Answer: 301-315

Question: And the “Labeled Peptide” value (protein NTMT1 N-terminal Xaa-Pro-Lys N-methyltransferase 1, residues of the probe-labeled peptide)?
Answer: 167-185

Question: And the “Labeled Peptide” value (protein O43615 TIMM44 Mitochondrial import inner membrane translocase su)?
Answer: 428-439

Question: What about the “Labeled Peptide” value (protein P62241 RPS8 40S ribosomal protein S8) of the same compound?
Answer: 158-170

Question: And the “Labeled Peptide” value (protein P62314 SNRNP40 U5 small nuclear ribonucleoprotein Sm D1)?
Answer: 67-86

Question: What about the “Labeled Peptide” value (protein P62888 RPL30 60S ribosomal protein L30) of the same compound?
Answer: 58-68

Question: And the “Labeled Peptide” value (protein PDCD4 Programmed cell death protein 4 (Q53EL6))?
Answer: 246-256

Question: What about the “Labeled Peptide” value (protein PDCD4 Programmed cell death protein 4, residues of the probe-labeled peptide) of the same compound?
Answer: 246-256

Question: What about the “Labeled Peptide” value (protein PDS5A Sister chromatid cohesion protein PDS5 homolog A (Q29RF7)) of the same compound?
Answer: 638-657

Question: And the “Labeled Peptide” value (protein PFN1 Profilin-1 (P07737))?
Answer: 39-54

Question: And the “Labeled Peptide” value (protein PHGDH D-3-phosphoglycerate dehydrogenase (O43175))?
Answer: 295-308

Question: And the “Labeled Peptide” value (protein PMPCB Mitochondrial-processing peptidase subunit beta (O75439))?
Answer: 406-424

Question: What about the “Labeled Peptide” value (protein PRDX2 Peroxiredoxin-2 (P32119)) of the same compound?
Answer: 120-127

Question: And the “Labeled Peptide” value (protein PRDX2 Peroxiredoxin-2, residues of the probe-labeled peptide)?
Answer: 120-127

Question: What about the “Labeled Peptide” value (protein PRMT1 Protein argine N-methyltransferase 1 (Q99873)) of the same compound?
Answer: 380-391

Question: What about the “Labeled Peptide” value (protein PTPLAD1 3-hydroxyacyl-CoA dehydratase 3 (Q9P035)) of the same compound?
Answer: 133-146

Question: What about the “Labeled Peptide” value (protein Q8N3U4 STAG2 Cohesin subunit SA-2) of the same compound?
Answer: 273-290

Question: What about the “Labeled Peptide” value (protein Q96DI7 SNRNP40 U5 small nuclear ribonucleoprotein 40 kDa protein) of the same compound?
Answer: 233-260

Question: What about the “Labeled Peptide” value (protein Q01082 SPTAN1 Spectrin beta chain, non-erythrocytic 1) of the same compound?
Answer: 1706-1717

Question: And the “Labeled Peptide” value (protein Q12931 TRAP1 Heat shock protein 75 kDa, mitochondrial)?
Answer: 603-619

Question: And the “Labeled Peptide” value (protein Q92922 SMARCC1 SWI/SNF complex subunit SMARCC1)?
Answer: 894-905

Question: And the “Labeled Peptide” value (protein RBC2 Replication (P35250))?
Answer: 211-230

Question: What about the “Labeled Peptide” value (protein RCN1 Reticulocalbin-1 (Q15293)) of the same compound?
Answer: 91-105

Question: And the “Labeled Peptide” value (protein RPL30 60S ribosomal protein L30, residues of the probe-labeled peptide)?
Answer: 58-68

Question: And the “Labeled Peptide” value (protein STAG2 Cohesin subunit SA-2, residues of the probe-modified peptide)?
Answer: 273-290

Question: And the “Labeled Peptide” value (protein TIMM44 Mitochondrial import inner membrane translocase su, residues of the probe-modified peptide)?
Answer: 428-439

Question: What about the “Labeled Peptide” value (residues of probe-labeled peptide on TUBA4A Tubulin alpha-4A chain, Accession # P68366) of the same compound?
Answer: 340-352
